Assay results: patent US4749687A, “Renin inhibitors containing statine or derivatives thereof” (Pfizer Inc., priority 1985, dated 1988)
Counter-ions that a name gives are not always drawn. Where a SMILES comes first, the peptide text is derived from it.

Target: T1, renin (Homo sapiens, UniProt P00797)
T1 construct: Blood plasma was obtained from healthy laboratory personnel, pooled and stored frozen until required; from tissue; host or cells: pooled human blood plasma (supernatant after centrifugation)
T1 sequence (P00797 67-406): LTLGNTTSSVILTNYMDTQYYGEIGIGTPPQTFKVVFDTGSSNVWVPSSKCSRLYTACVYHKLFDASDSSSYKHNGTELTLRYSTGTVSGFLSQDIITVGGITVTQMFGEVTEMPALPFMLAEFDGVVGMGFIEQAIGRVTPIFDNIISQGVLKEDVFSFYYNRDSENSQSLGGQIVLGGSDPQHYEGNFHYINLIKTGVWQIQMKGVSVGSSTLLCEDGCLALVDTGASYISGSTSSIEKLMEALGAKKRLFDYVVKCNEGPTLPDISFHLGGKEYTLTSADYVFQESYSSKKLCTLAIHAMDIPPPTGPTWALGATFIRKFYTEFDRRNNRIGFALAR
Assay: Inhibition of the angiotensinogen-cleaving activity of renin in vitro (plasma, angiotensin I radioimmunoassay)
Assay type: biochemical
Conditions: pooled blood plasma from healthy laboratory personnel, pH 7.4, incubated three hours at 37° C., angiotensin I by radioimmunoassay; read-out: IC50 (inhibitor concentration required to produce a fifty percent inhibition of the angiotensinogen-cleaving activity of renin)
Description: Blood plasma was obtained from healthy laboratory personnel, pooled and stored frozen until required. Before use, a quantity of this plasma was defrosted and centrifuged, and the supernatant mixed with protease inhibitors and buffered to pH 7.4. Renin inhibitors were added at different levels to different aliquots of the plasma supernatant, and the resulting mixtures (310 lambda) incubated for three hours at 37° C. along with renin inhibitor-free control mixtures. After incubation, the mixtures were quenched in ice water and each assayed for angiotensin I using angiotensin I antibody. The production of angiotensin I in the presence of a renin inhibitor was compared to that produced in the absence of the inhibitor, and a percentage inhibition was calculated. Using data obtained from duplicate incubations at each of several different inhibitor concentrations, the inhibitor concentration in the incubation mixture required to produce a fifty percent inhibition of the angiotensinogen-cleaving activity of renin, i.e. the IC50 of the inhibitor, was calculated for various different inhibitors.
The angiotensin I in the quenched incubation mixtures was assayed by means of a radioimmunoassay, using components of a renin radioimmunoassay kit supplied by Becton Dickinson and Co. (Orangeburg, N.Y.). This radioimmunoassay was based upon the one developed by Haber et al., J. Clin. Endocrinol., 29, pp. 1349-1355 (1969).

Row | IC50 [µM] | Compound
1 | < 4 | CC[C@H](C)[C@@H](CN[C@@H](Cc1ccccc1)C(=O)O)NC(=O)C[C@H](O)[C@H](CC1CCCCC1)NC(=O)[C@H](Cc1c[nH]cn1)NC(=O)[C@H](Cc1ccccc1)NC(=O)OC(C)(C)C [Example 11, [N-(t-butyloxycarbonyl)-Phe]-His-Cyclostatine-[Amino(2-secbutyl-ethylene)]-Phe Acetic Acid Salt]
2 | < 4 | [N-(t-butyloxycarbonyl)-Phe]-His-Aminostatine-Ile-Phe Diacetate [Example 5]
3 | < 4 | CC(C)(C)OC(=O)N1CCC[C@H]1C(=O)N[C@@H](Cc1ccccc1)C(=O)N[C@@H](Cc1c[nH]cn1)C(=O)N[C@@H](CC1CCCCC1)[C@@H](O)CC(=O)N[C@@H](CCCCN)C(=O)N[C@@H](Cc1ccccc1)C(=O)O [Example 10, [N-(t-butyloxycarbonyl)-Pro]-Phe-His-CyclostatineLys-Phe] (HELM PEPTIDE1{[CC(C)(C)OC(=O)[*:2]].P.F.H.[O=C(C[C@H](O)[C@H](CC1CCCCC1)N[*:1])[*:2]].K.F}$$$$V2.0)
4 | < 4 | CC(C)(C)OC(=O)N[C@@H](Cc1ccccc1)C(=O)N[C@@H](Cc1c[nH]cn1)C(=O)N[C@@H](CC1CCCCC1)[C@@H](O)CC(=O)N[C@@H](CCCCN)C(=O)N[C@@H](Cc1ccccc1)C(=O)O [Example 9, [N-(t-butyloxycarbonyl)-Phe]-His-Cyclostatine-Lys-Phe] (HELM PEPTIDE1{[CC(C)(C)OC(=O)[*:2]].F.H.[O=C(C[C@H](O)[C@H](CC1CCCCC1)N[*:1])[*:2]].K.F}$$$$V2.0)
